Assay results taken from patent US4504486A (priority 1982, dated 1985).

Key:
Phytophthora infestans = assay: whole plant or invertebrate; assay type: in vivo; settings: in Solanum lycopersicum, 168 h, read-out: % Control TLB (Tomato Late Blight)
Piricularia oryzae = assay type: in vivo; settings: 625 ppm spray; rice seedlings, inoculated 1 day later; relative to untreated check
Rhizoctania solani = assay: Mycelial Inhibition, Rhizoctania solani; assay type: cell-based; settings: Standard DIFOLATAN; 500 ppm, 25° C., 24 hours; 0 = more than 1.6 micrograms/cm^2 required for 99% control
Procedure: (§1) The compounds of the present invention were evaluated for in-vitro fungicidal effectiveness by means of a Mycelial Inhibition test. This test is designed to measure the fungitoxic activity of fungicidal chemicals in terms of their degree of inhibition of mycelium growth. Each compound to be tested was dissolved in acetone to 500 ppm concentration. Paper strips were infused with the particular mycelium growth by covering the paper with a potato dextrose broth culture of mycelial suspension. The papers were then placed on potato dextrose agar plates and sprayed by means of a microsprayer with the fungicidal solution. The treated paper strips were incubated at 25° C. and the data is taken after 24 hours. Fungicidal activities are measured by a zone of inhibited mycelial growth from the center of the paper strip. The effectiveness of the compounds tested for fungicidal activity is reported in Table II (a) for those compounds which were effective in inhibiting mycelial growth.
(§2) The activity is reported in terms of [formula]
(§3) When more than 1.6 micrograms/cm^2 for 99% control of the fungus for the test compound is required, the activity is reported as 0.

Erisiphe polygoni = assay: Bean Powdery Mildew (seedling bean plants); assay type: in vivo; settings: 240 h; 250 ppm spray; bean seedlings, inoculated 1 day later; relative to untreated check; read-out: % Control BPM (Bean Powdery Mildew)
Procedure: The compounds of the invention were tested for the control of the Bean Powdery Mildew organism Erisiphe polygoni. Seedling bean plants were sprayed with a 250 ppm solution of the test compound in acetone, water and a nonionic emulsifier. The sprayed plants were then inoculated 1 day later with organism. The plants were maintained for 10 days at temperatures of 68° F. at night with daytime temperatures of 72° to 80° F.; relative humidity was maintained at 40% to 60%. The percent disease control provided by a given test compound was based on the percent disease reduction relative to the untreated check plants.

[1] = tested on: Alternaria solani conidia; assay: Tomato Early Blight (tomato seedlings); assay type: in vivo; settings: 250 ppm spray, inoculated 1 day later, relative to untreated check
Procedure: Compounds of the invention were tested for the control of the Tomato Early Blight organism, Alternaria solani conidia. Tomato (variety Bonny Best) seedlings of 6 to 7 weeks old were used. The tomato plants were sprayed with a 250 ppm solution of the test compound in an acetone-and-water solution containing a small amount of a nonionic emulsifier. The sprayed plants were inoculated 1 day later with the organism, placed in the environmental chamber and incubated at 66° to 68° F. and 100% relative humidity for 24 hours. Following the incubation, the plants were maintained in a greenhouse for about 12 days. Percent diseases control was based on the percent disease development on untreated check plants.

Septoria apii = assay type: in vivo; settings: 250 ppm spray; celery plants; relative to untreated check
Uronyces phaseoli tipica = assay: Leaf Rust / Bean Rust (pinto beans); assay type: in vivo; settings: 336 h, 250 ppm spray, about 14 days, relative to untreated check, read-out: % Control BR (Bean Rust)
Procedure: The Leaf Rust test was made using pinto beans. The pathogen was Uronyces phaseoli tipica. The pinto bean plants were sprayed with a 250 ppm solution of the test compound in an acetone-water mixture containing a nonionic emulsifier. The treated plants were inoculated thereafter with the pathogen and then incubated in an environmental chamber for approximately 20 hours at 100% relative humidity and a temperature of 68° to 70° F. The plants were then removed from the chamber, allowed to dry, and then maintained in a greenhouse at a 60% to 80% relative humidity. The rate of infection on the leaves was made after about 14 days. The percent disease control provided by a given test compound was based on the percent disease reduction relative to untreated check plants.

Pythium ultimum = assay: Mycelial Inhibition, Pythium ultimum; assay type: cell-based; settings: Standard DIFOLATAN; 500 ppm, 25° C., 24 hours; 0 = more than 1.6 micrograms/cm^2 required for 99% control
Procedure: as §1, §2, §3

Plasmopara viticola = assay: Grape Downy Mildew Control (detached grape leaves); assay type: in vivo; settings: in Vitis vinifera, 250 ppm spray, disease reduction relative to untreated check, read-out: % Control GDM (Grape Downy Mildew)
Procedure: Grape Downy Mildew Control
The compounds of the invention were tested for the control of the Grape Downy Mildew Control organism Plasmopara viticola. Detached leaves, between 70 and 85 mm in diameter, of 7-week old Vitis vinifera cultivar Emperor grape seedlings were used as hosts. The leaves were sprayed with a 250 ppm solution of the test compound in acetone. The sprayed leaves were dried, inoculated with a spore suspension of the organism, placed in a humid environmental chamber and incubated at 66° to 68° F. and about 100% relative humidity. After incubation for 2 days, the plants were then held in a greenhouse 7 to 9 days; then the amount of disease control was determined. The percent disease control provided by a given test compound was based on the percent disease reduction relative to untreated check plants.

Botrytis cinerea = assay: Mycelial Inhibition, Botrytis cinerea; assay type: cell-based; settings: Standard DIFOLATAN; 500 ppm, 25° C., 24 hours; 0 = more than 1.6 micrograms/cm^2 required for 99% control
Procedure: as §1, §2, §3

| SMILES | pest or weed control at 250 ppm (Phytophthora infestans) [%] | % Control Rice Blast (Piricularia oryzae) [%] | Mycelial inhibition, Rhizoc. (% Standard) (Rhizoctania solani) | pest or weed control at 250 ppm (Erisiphe polygoni) [%] | % Control TEB (Tomato Early Blight) [1] [%] | % Control CLB (Celery Late Blight) (Septoria apii) [%] | pest or weed control at 250 ppm (Uronyces phaseoli tipica) [%] | Mycelial inhibition, Pythium (% Standard) (Pythium ultimum) | pest or weed control at 250 ppm (Plasmopara viticola) [%] | Mycelial inhibition, Botrytis (% Standard) (Botrytis cinerea) |
| --- | --- | --- | --- | --- | --- | --- | --- | --- | --- | --- |
| Cc1cc(=O)on1C(=O)c1ccc(Cl)cc1[N+](=O)[O-] [Compound 8] | 56 | 0 | 0 | 0 | 56 | 11 | 0 | 0 | 6 | 15 |
| Cc1cc(=O)on1C(=O)c1ccc([N+](=O)[O-])cc1 [Compound 1, 3-methyl-2-(4'-nitrobenzoyl)-3-isoxazolin-5-one] | 0 | – | 0 | 0 | 0 | – | 0 | 0 | 21 | 0 |
| Cc1cc(=O)on1C(=O)c1ccc(Cl)cc1 [Compound 6] | 50 | 0 | 33 | 0 | 0 | 0 | 0 | 12 | 16 | 6 |
| Cc1cc(=O)on1C(=O)c1ccc(Cl)cc1Cl [Compound 2, 3-methyl-2-(2',4'-dichlorobenzoyl)-3-isoxazolin-5-one] | 97 | – | 0 | 21 | 92 | 99 | 0 | 0 | 14 | 34 |
| Cc1cc(=O)on1C(=O)c1ccc([N+](=O)[O-])cc1Cl [Compound 7] | 31 | 50 | 0 | 0 | 0 | 44 | 0 | 0 | 19 | 0 |
| CCCc1cc(=O)on1C(=O)c1ccc(Cl)cc1Cl [Compound 3, 3-n-propyl-2-(2',4'-dichlorobenzoyl)-3-isoxazolin-5-one] | 35 | 44 | 0 | 0 | – | 0 | 0 | – | 0 | 0 |
| Cc1cc(=O)on1C(=O)c1ccccc1 [Compound 4] | 50 | 0 | 0 | 0 | – | 0 | 0 | – | 6 | 0 |
| CC(C)c1cc(=O)on1C(=O)c1ccc(Cl)cc1Cl [Compound 5] | 69 | 83 | 23 | 0 | – | 0 | 0 | – | 3 | 0 |
